Data: publication PMC6240096, “A hPSC-based platform to discover gene-environment interactions that impact human β-cell and dopamine neuron survival” (Nature Communications, 2018)

Assays:
EndoC-βH1-Luc cells = assay: Humanized NSG mice transplanted with EndoC-βH1-Luc cells; format: in vivo, human; details: 12 mg/kg
Procedure: LentiLuc-blast plasmid was constructed based on the LentiCas9-blast vector (Addgene, 52926). The luciferase gene was driven by a constitutively active EFS promoter. EndoC-βH1 cells were infected with the lentivirus followed by 4 days selection with 20 μg/ml blasticidin to create EndoC-βH1-Luc cells. Adult 6–8 week old female NSG immunodeficient mice (Jackson Laboratory) were transplanted with 5 × 10^5 EndoC-βH1-Luc cells to create a humanized mouse model. Baseline luminescent levels were obtained 5 days after transplantation. 12 mg/kg propargite or vehicle were then administrated for 5 days via intraperitoneal injection (the starting day referred to as day 0). In vivo imaging was performed on day 1, 3, and 5 with an Xtreme Optical and X-ray small animal imaging system. During the imaging, isoflurane was used for anesthesia. 2 mg/150 µl/25 g body weight luciferin potassium salt (Regis, 360223) was applied to each mouse. To generate EndoC-βH1-Luc cells carrying sgGSTT1 or sgGFP, EndoC-βH1-Luc cells were infected with the lentivirus carrying Cas9 and sgRNAs (sgGSTT1 or sgGFP), and purified with 2 days selection using 1 μg/ml puromycin. Adult 6–8-week-old female NSG-immunodeficient mice (Jackson Laboratory) were transplanted with 5 × 10^5 EndoC-βH1-Luc cells carrying sgGSTT1 or sgGFP (control). 12 mg/kg propargite or vehicle were administrated for 3 days via intraperitoneal injection, mice were then sacrificed at day 3. The xenografts were embedded in OCT. The tissue was then sectioned at 5 μm to detect cell death with TUNEL assays (In Situ Cell Death Detection Kit, TMR red, Sigma, 12156792910) and for immunohistochemistry staining analysis of β-cell marker INS to measure cell death rate in EndoC-βH1-Luc cells carrying sgGSTT1 or sgGFP.

A1AT+ hepatocytes = assay: Inhibition curve on hESC-derived hepatocytes; format: cell-based, human; details: cell survival rate, 4 days, n=3
Procedure: hESCs-derived INS^+ cells, MSCs[43], neurons, and hepatocytes[44] were derived based on the reported protocols and re-plated on 96-well plates with Accutase digestion. Cardiomyocytes (CMs) were differentiated from H9-MYH6: mCherry reporter line, based on the reported protocol. After overnight incubation, cells were treated with DMSO or different doses of hit compounds for 4 days. After fixation, the cells were stained with markers for each cell type. DAPI was used to stain cell nuclei. Plates were analyzed by ImageXpress^MICRO Automated High-Content Analysis System.
Supplementary Figure 4. Assessment of the toxic effect of propargite on different type […]
(a) Flow cytometry char acterization of CD29+ and CD73+ mesenchymal stem cells (MSCs) derived from H1 hESCs. (b-c) microscope image (b) and flow cytometry (c) characterization of cardiomyocytes expressing MYH6+ derived from a MYH6:mCherry reporter hESC line. (d-e) Immunocytochemistry characterization of MAP2+/TUJ1+ and HuC/D+/MAP2+ neurons (d) and A1AT+/ASGPR1+ hepatocytes (e) derived from H1 hESCs. All the cells were counterstained by DAPI (blue). Scale bars, 100 µm. (f) Inhibition curve of propargite on pancreatic β-like cells, MSCs, cardiomyocytes, neurons, and hepatocytes derived from hESCs, and BJ-fibroblasts (n=3). Values presented as mean±S.D. […]

primary human islets = assay: Primary human islets, INS and propidium iodide staining; format: cell-based; details: 4 days treatment
Text: Fig. 1 A high-content screen identifies propargite as a compound that induces pancreatic β-cell death. a Scheme of pancreatic β-cell differentiation and high-content chemical screen. b Chemical structure of two hit compounds: Propargite and Vacor. c Inhibitory curve and IC50 of propargite or Vacor on INS^+ and INS^− cells (n = 8). d, e Immunocytochemistry analysis (d) and survival rate (e) of H1-derived glucose-responding INS^+ and INS^− cells treated with different doses of propargite (n = 8). Pancreatic β-like cells were stained for INS (green) and all cells were counterstained by DAPI (blue). Scale bars, 100 μm. The survival rate was calculated by dividing the average number of cells in propargite-treated conditions by the average number of cells in the DMSO control. f, g Representative live images (f) and fold-change (g) of INS^w/GFP HES3-derived INS-GFP^+ cells treated with 1.6 μM propargite or DMSO control at different time points compared to initial time 0 (n = 3). Scale bars, 100 μm. h, i, j Representative images (h) and cell survival rate (i) or cell death rate (j) of DMSO or propargite-treated human primary islets (n = 3). Pancreatic β-cells were stained with the INS antibody (green) and dead cells were stained with propidium iodide (PI) (red). Scale bars, 200 μm. Scale bars for higher resolution (Zoom) images, […]. Pancreatic β-cell death rate was calculated by defining percentages of INS^+ PI^+ cells in INS^+ cells, and non-β-cell death rate was calculated by percentages of INS^−PI^+ cells in INS^− cells.

2-(4-tert-butylphenoxy)-cyclohexyl prop-2-yne-1-sulfonate [propargite]
cell death rate (TUNEL) of EndoC-βH1-Luc cells carrying sgGSTT1 vs sgGFP (EndoC-βH1-Luc cells; day 3): higher cell death rate | luciferase signal of EndoC-βH1-Luc cells (EndoC-βH1-Luc cells; day 3): slower rate increase | luciferase signal of EndoC-βH1-Luc cells (EndoC-βH1-Luc cells; day 5): marked decrease | IC50 (A1AT+ hepatocytes): 13 µM | number of INS+ cells in primary human islets (primary human islets): decreased | percentage of PI+/INS+ cells in INS+ cells (primary human islets): increased percentage
